According to patent US20110086828A1, “TREATMENT OF ALCOHOL ABUSE AND […] MODULATORS OF NE[…] SITES ON GABAA RECEPTORS” (Board of Supervisors of Louisiana State University and …, priority 2009, published 2011):

Test system: male Long-Evans hooded rats
Test: two-bottle ethanol preference test (ethanol intake) after i.p. neuroactive steroid
Type: in vivo, rat
Details: for ethanol intake vs baseline / volume of ethanol intake vs baseline: 10 and 56 mg/kg i.p. 15 min before 30-min session; for water intake: 10 and 56 mg/kg i.p.; for effect on ethanol intake (oral self administration of ethanol): summary statement, twenty-two male Long-Evans hooded rats
Experimental: Upon arrival, these subjects were housed 4 per cage and provided a diet of standard rodent chow ad libitum (Rodent Diet 5001, PMI Inc., St. Louis, Mo., USA) until postnatal day (hereinafter “PD”) 70. From PD 71 forward, the subjects were housed individually and maintained at 95% of their free-feeding weight during which a saccharin-fading procedure was conducted. Water was provided ad libitum in the home cage except during the experimental sessions. The home cage was made of polypropylene plastic and contained hardwood chip bedding. The colony room was maintained at 21±2 C.° with 50±10% relative humidity on a 14L:10D (light/dark) cycle (lights on 06:00 hours (h); lights off 20:00 h). Following training under the saccharin-fading procedure, the subjects were returned to ad libitum feeding conditions for 73 (minimum) to 89 (maximum) days during which an ethanol concentration-effect curve was established. After this curve was obtained, subjects were maintained at 95% of their free-feeding weight for the rest of the study. Ethanol preference training and experimental sessions were conducted daily during the light cycle between the hours of 12:00 h and 14:00 h. Subjects used in these studies were maintained in accordance with the Institutional Animal Care and Use Committee, Louisiana State University Health Sciences Center, and in compliance with the guidelines of the National Institute of Health Guide for Care and Use of Laboratory Animal Resources (publication No. 85-23, revised 1996).
While still housed 4 per cage, subjects were randomly divided into two groups, a group that received ethanol between PD 35 and 63 (adolescent ethanol group) and a group that received saline during the same postnatal period (adolescent saline group). The adolescent ethanol group (n=11) received 2 g/kg of ethanol intraperitoneally (hereinafter “i.p.”) every other day, whereas the adolescent saline group (n=11) received an equal volume of saline every other day, for a total of 15 injections.
Subjects were trained to consume ethanol orally using a modified saccharin/ethanol fading procedure (Samson, 1986; Leonard et al., 2006) starting on PD 75. Prior to each daily training session, animals were weighed and then returned to their home cage. Water bottles were removed and replaced for 30 min with 50-ml plastic centrifuge tubes containing a saccharin/ethanol solution and fitted with a rubber stopper and metal sipper tube. At the end of the 30-min session, the drinking tubes were removed, water bottles were replaced, and the volume of the solution consumed was determined by weighing the tubes (i.e., [(weight prior to the session—weight after the session)-0.4 ml)]. All solutions were prepared fresh daily. Rats initially received a 0.2% sodium saccharin(weight (g of sodium saccharin)/volume (100 mL solution))/0% ethanol (volume (mL of alcohol)/volume (100 mL solution)) solution that was gradually replaced until a solution of 0% sodium saccharin/10% ethanol was achieved. After a subject acquired stable saccharin/ethanol intake (±20% of the mean for 3 consecutive days) or a maximum of 8 days elapsed, the next sodiumsaccharin/ethanol solution was presented. Solutions were presented in the following order: 0.2% saccharin/0% ethanol, 0.15% saccharin/0.5% ethanol, 0.125% saccharin/1% ethanol, 0.1% saccharin/2% ethanol, 0.05% saccharin/5% ethanol, 0.01% saccharin/8% ethanol, and 0% saccharin/10% ethanol. Training, which took 40-57 sessions, and all subsequent testing were conducted 7 days per week.
After a stable baseline of ethanol drinking was established with a 10% ethanol solution, a concentration-effect curve for ethanol and water consumption was established using the standard two-bottle preference test. During these tests, subjects were allowed simultaneous access to two drinking tubes daily for 60 min in their home cage. […]

| SMILES | ethanol intake vs baseline (18% ethanol) | volume of ethanol intake vs baseline (18% ethanol) | water intake (30-min preference session) | ethanol intake volume (56 mg/kg i.p., every ethanol concentration except the 18% concentration) | ethanol intake, first day of injection (100 mg/kg i.p. (highest dose), 18% ethanol, p<0.001, n=22) | shift of ethanol concentration-effect curve (10, 32 and 56 mg/kg i.p. with ethanol 3.2-32%, p<0.05) | ethanol intake at varying ethanol concentrations (10 and 32 mg/kg i.p., both doses comparable) | ethanol intake vs vehicle, after stability criterion met (10 to 100 mg/kg i.p., 18% ethanol, p<0.05, n=22) | effect on ethanol intake (oral self administration of ethanol) | intake of 18% ethanol solution vs vehicle, after stability criterion met (10 mg/kg i.p., Holm-Sidak post-hoc, n=22) | sedative effects (highest dose of pregnanolone) | intake of 18% ethanol solution, first day of injection, comparison between doses (pregnanolone 3.2 mg/kg i.p. vs 1.8, 5.6 and 10 mg/kg, p<0.05) | intake of 18% ethanol solution vs vehicle, first day of injection (pregnanolone 1-10 mg/kg i.p., 30-min preference session, n=22) |
| --- | --- | --- | --- | --- | --- | --- | --- | --- | --- | --- | --- | --- | --- |
| CC(=O)OC1CC[C@@]2(C)C(=CC(=O)[C@@H]3[C@@H]2CC[C@]2(C)C(=O)CC[C@@H]32)C1 (some centres unmarked) [7-keto-DHEA, 3-acetyl-7-oxo-dehydroepiandrosterone] | dose-dependent decreases | dose-dependent decreases | not significantly different |  |  |  |  |  |  |  |  |  |  |
| C[C@]12CC[C@H](O)CC1=CC[C@@H]1[C@@H]2CC[C@]2(C)C(=O)CC[C@@H]12 [DHEA, 5-androstene-3β-ol-17-one] | dose-dependent decreases | dose-dependent decreases | not significantly different | below 1 ml | significant effect | shifted downward significantly | decreased the intake of ethanol concentrations ranging from 3.2 and 18% | significantly decreased intake | markedly reduce oral self administration of ethanol |  |  |  |  |
| CC(=O)[C@H]1CC[C@H]2[C@@H]3CC[C@@H]4C[C@H](O)CC[C@]4(C)[C@H]3CC[C@]12C [pregnanolone, 5β-pregnan-3α-ol-20-one] |  |  |  |  |  |  |  |  | no apparent effect on ethanol intake | significantly differed from vehicle | produced sedative effects | significantly higher | none of the effects of dose were different from vehicle |
